Reference: US20240150293A1, “SPIROCYCLOHEXANE DERIVATIVES, PHARMACEUTICAL COMPOSITIONS CONTAINING THEM AND THEIR USES AS ANTI-APOPTOTIC INHIBITORS” (LES LABORATOIRES SERVIER, priority 2021, published 2024)
Read-outs that look alike come from different tables or passages of the source.

Experiments:
[1] = biological target: Cy5-labelled Mcl1 (amino acids 171-321) C286S protein (UniProtKB Q07820) (Homo sapiens (Human), UniProt Q07820, C286S); experiment: Inhibition of Mcl-1 by the fluorescence quenching assay (Example A, Method B); type: binding
Sequence of Cy5-labelled Mcl1 (amino acids 171-321) C286S protein (Q07820 171-321 C286S): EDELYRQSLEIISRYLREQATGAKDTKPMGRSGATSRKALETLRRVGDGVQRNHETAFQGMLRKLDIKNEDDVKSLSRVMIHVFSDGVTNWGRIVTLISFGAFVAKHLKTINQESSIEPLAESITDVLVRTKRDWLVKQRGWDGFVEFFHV
Outline: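 Eleven-point compound series incubated 2 h at room temperature with 1 nM Cy5-tagged protein and quencher-labelled PUMA peptide at 10, 20 or 400 nM in HEPES/NaCl/Tween 20, pH 7.4, 5% DMSO. IC50 for 50% fluorescence increase by 4-parameter fit, then Ki derived (complete cKi or estimated eKi).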

NCI-H929 cell lines = experiment: In vitro cytotoxicity, CellTiter-Glo (CTG) assay (Example B, Method B); type: cell-based; conditions: NCI-H929 cells, 48 h incubation, read-out: C50
Outline: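 ATP-based luminescence (CellTiter-Glo) after 48 h incubation at 37° C., 5% CO2 gave NCI-H929 viability. Eleven concentrations tested, highest final 30 μM, dispensed acoustically from 10 mM DMSO stocks; C50 defined as concentration reaching 50% viability.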

C[C@@H](COc1ccnc2c1[C@H](C)CCC2)C[C@H]1Cc2cc3c(cc2[C@]12CC[C@@](Nc1cccc(Cl)c1)(C(=O)OCOP(=O)(OC(C)(C)C)OC(C)(C)C)CC2)OCO3 [Example 951, [(di-tert-butoxyphosphoryl)oxy]methyl (1r,4S,6′S)-4-(3-chloroanilino)-6′-[(2R)-2-methyl-3-{[(5R)-5-methyl-5,6,7,8-tetrahydroquinolin-4-yl]oxy}propyl]-6′,7′-dihydro-2′H-spiro[cyclohexane-1,5′-indeno[5,6-d][1,3]dioxole]-4-carboxylate]
Ki [1]: 36.9 nM | IC50 (NCI-H929 cell lines; Homo sapiens, NCI-H929, 48 h): 1790 nM

CC(C)COc1ccc2c(c1)[C@]1(CC[C@@](Nc3cccc(Cl)c3)(C(=O)O)CC1)[C@@H](C[C@@H](C)COc1ccnc3c1[C@H](C)CCC3)C2 [Example 788, (1r,2′S,4S)-4-(3-chloroanilino)-2′-[(2R)-2-methyl-3-{[(5R)-5-methyl-5,6,7,8-tetrahydroquinolin-4-yl]oxy}propyl]-6′-(2-methylpropoxy)-2′,3′-dihydrospiro[cyclohexane-1,1′-indene]-4-carboxylic acid]
Ki [1]: 0.241 nM | IC50 (NCI-H929 cell lines; Homo sapiens, NCI-H929, 48 h): 262 nM

C[C@@H](COc1c(Cl)cnc2c1[C@H](C)CCC2)C[C@H]1Cc2cc3c(cc2[C@]12CC[C@@](Nc1ccc(F)c(Cl)c1)(C(=O)O)CC2)OCO3 [Example 886, (1r,4S,6′S)-4-(3-chloro-4-fluoroanilino)-6′-[(2R)-3-{[(5R)-3-chloro-5-methyl-5,6,7,8-tetrahydroquinolin-4-yl]oxy}-2-methylpropyl]-6′,7′-dihydro-2′H-spiro[cyclohexane-1,5′-indeno[5,6-d][1,3]dioxole]-4-carboxylic acid]
Ki [1]: 0.145 nM | IC50 (NCI-H929 cell lines; Homo sapiens, NCI-H929, 48 h): 381 nM

C[C@@H](COc1ccnc2c1[C@H](C)CCC2)C[C@H]1Cc2ccc(OC3CCCC3)cc2[C@]12CC[C@@](Nc1cccc(Cl)c1)(C(=O)O)CC2 [Example 789, (1r,2′S,4S)-4-(3-chloroanilino)-6′-(cyclopentyloxy)-2′-[(2R)-2-methyl-3-{[(5R)-5-methyl-5,6,7,8-tetrahydroquinolin-4-yl]oxy}propyl]-2′,3′-dihydrospiro[cyclohexane-1,1′-indene]-4-carboxylic acid]
Ki [1]: 0.135 nM | IC50 (NCI-H929 cell lines; Homo sapiens, NCI-H929, 48 h): 270 nM

Cc1ccc2c(c1)CN(C[C@@H](C)COc1ccnc3c1[C@H](C)CCC3)[C@]21CC[C@](Nc2cccc(Cl)c2)(C(=O)O)CC1 [Example 55, (1s,4S)-4-(3-chloroanilino)-5′-methyl-2′-[(2R)-2-methyl-3-{[(5R)-5-methyl-5,6,7,8-tetrahydroquinolin-4-yl]oxy}propyl]-2′,3′-dihydrospiro[cyclohexane-1,1′-isoindole]-4-carboxylic acid]
Ki ([1]; Ki determined from IC50): 0.104 nM | IC50 (NCI-H929 cell lines; Homo sapiens, NCI-H929, 48 h): 181 nM

CC(C)C1COc2cc3c(cc2OC1)[C@]1(CC[C@@](Nc2cccc(Cl)c2)(C(=O)O)CC1)[C@@H](C[C@@H](C)COc1ccnc2c1[C@H](C)CCC2)C3 (single isomer, unassigned) [Example 993]
Ki [1]: 0.0666 nM | IC50 (NCI-H929 cell lines): 143 nM

C[C@@H](COc1ccnc2c1[C@H](C)CCC2)C[C@H]1Cc2ccc(-c3ccn(C)c3)cc2[C@]12CC[C@@](Nc1cccc(Cl)c1)(C(=O)O)CC2 [Example 883, (1r,2′S,4S)-4-(3-chloroanilino)-2′-[(2R)-2-methyl-3-{[(5R)-5-methyl-5,6,7,8-tetrahydroquinolin-4-yl]oxy}propyl]-6′-(1-methyl-1H-pyrrol-3-yl)-2′,3′-dihydrospiro[cyclohexane-1,1′-indene]-4-carboxylic acid]
Ki [1]: 0.246 nM | IC50 (NCI-H929 cell lines; Homo sapiens, NCI-H929, 48 h): 133 nM

C[C@@H](COc1ccnc2c1[C@H](C)CCC2)C[C@H]1Cc2cc3c(cc2[C@]12CC[C@@](Nc1cccc(Cl)c1)(C(=O)OCC(=O)N(C)C)CC2)OCO3 [Example 936, 2-(dimethylamino)-2-oxoethyl (1r,4S,6′S)-4-(3-chloroanilino)-6′-[(2R)-2-methyl-3-{[(5R)-5-methyl-5,6,7,8-tetrahydroquinolin-4-yl]oxy}propyl]-6′,7′-dihydro-2′H-spiro[cyclohexane-1,5′-indeno[5,6-d][1,3]dioxole]-4-carboxylate]
Ki [1]: 142 nM | IC50 (NCI-H929 cell lines; Homo sapiens, NCI-H929, 48 h): 6840 nM

C[C@@H](COc1ccnc2c1[C@H](C)CCC2)C[C@H]1Cc2ccccc2[C@]12CC[C@@](Nc1ccc(F)c(Cl)c1F)(C(=O)O)CC2 [Example 707, (1r,2′S,4S)-4-(3-chloro-2,4-difluoroanilino)-2′-[(2R)-2-methyl-3-{[(5R)-5-methyl-5,6,7,8-tetrahydroquinolin-4-yl]oxy}propyl]-2′,3′-dihydrospiro[cyclohexane-1,1′-indene]-4-carboxylic acid]
Ki [1]: 0.585 nM | IC50 (NCI-H929 cell lines; Homo sapiens, NCI-H929, 48 h): 230 nM

C[C@@H](COc1ccnc2c1[C@H](C)CCC2)C[C@H]1Cc2cc3c(cc2[C@]12CC[C@@](Nc1cccc(Cl)c1)(C(=O)NS(C)(=O)=O)CC2)OCO3 [Example 957, (1r,4S,6′S)-4-(3-chloroanilino)-N-(methanesulfonyl)-6′-[(2R)-2-methyl-3-{[(5R)-5-methyl-5,6,7,8-tetrahydroquinolin-4-yl]oxy}propyl]-6′,7′-dihydro-2′H-spiro[cyclohexane-1,5′-indeno[5,6-d][1,3]dioxole]-4-carboxamide]
Ki [1]: 6.24 nM | IC50 (NCI-H929 cell lines; Homo sapiens, NCI-H929, 48 h): 4700 nM

C[C@@H](COc1ccnc2c1[C@H](C)CCC2)C[C@H]1Cc2cc3c(cc2[C@]12CC[C@@](Nc1ccc(Cl)c(Cl)c1)(C(=O)O)CC2)OCO3 [Example 887, (1r,4S,6′S)-4-(3,4-dichloroanilino)-6′-[(2R)-2-methyl-3-{[(5R)-5-methyl-5,6,7,8-tetrahydroquinolin-4-yl]oxy}propyl]-6′,7′-dihydro-2′H-spiro[cyclohexane-1,5′-indeno[5,6-d][1,3]dioxole]-4-carboxylic acid]
Ki [1]: 0.293 nM | IC50 (NCI-H929 cell lines; Homo sapiens, NCI-H929, 48 h): 151 nM

CC(C)[C@@H]1CCOc2cc3c(cc2O1)[C@]1(CC[C@@](Nc2cccc(Cl)c2)(C(=O)O)CC1)[C@@H](C[C@@H](C)COc1ccnc2c1[C@H](C)CCC2)C3 [Example 998, (1r,4S,4'S,8′S)-4-(3-chloroanilino)-8′-[(2R)-2-methyl-3-{[(5R)-5-methyl-5,6,7,8-tetrahydroquinolin-4-yl]oxy}propyl]-4′-(propan-2-yl)-3′,4′,8′,9′-tetrahydro-2′H-spiro[cyclohexane-1,7′-indeno[5,6-b][1,4]dioxepine]-4-carboxylic acid]
Ki [1]: 0.106 nM | IC50 (NCI-H929 cell lines; Homo sapiens, NCI-H929, 48 h): 63.1 nM

C[C@@H](COc1ccnc2c1[C@H](C)CCC2)CN1Cc2cc(Cl)ccc2[C@]12CC[C@@](Nc1cccc(Cl)c1)(C(=O)O)CC2 [Example 56, (1s,4S)-5′-chloro-4-(3-chloroanilino)-2′-[(2R)-2-methyl-3-{[(5R)-5-methyl-5,6,7,8-tetrahydroquinolin-4-yl]oxy}propyl]-2′,3′-dihydrospiro[cyclohexane-1,1′-isoindole]-4-carboxylic acid]
Ki ([1]; Ki determined from IC50): 0.762 nM | IC50 (NCI-H929 cell lines; Homo sapiens, NCI-H929, 48 h): 151 nM

C[C@@H](COc1ccnc2c1[C@H](C)CCC2)CN1Cc2ccccc2[C@]12CC[C@@](Nc1cccc(Cl)c1)(C(=O)O)CC2 [Example 40, (1s,4S)-4-(3-chloroanilino)-2′-[(2R)-2-methyl-3-{[(5R)-5-methyl-5,6,7,8-tetrahydroquinolin-4-yl]oxy}propyl]-2′,3′-dihydrospiro[cyclohexane-1,1′-isoindole]-4-carboxylic acid]
Ki ([1]; Ki determined from IC50): 0.981 nM | IC50 (NCI-H929 cell lines; Homo sapiens, NCI-H929, 48 h): 280 nM

CC1Oc2cc3c(cc2O1)[C@]1(CC[C@@](Nc2cccc(Cl)c2)(C(=O)O)CC1)[C@@H](C[C@@H](C)COc1ccnc2c1[C@H](C)CCC2)C3 (single isomer, unassigned) [Example 965]
Ki [1]: 0.0173 nM | IC50 (NCI-H929 cell lines; Homo sapiens, NCI-H929, 48 h): 68.8 nM

COc1cc2c(cc1Cl)CN(C[C@@H](C)COc1ccnc3c1[C@H](C)CCC3)[C@]21CC[C@](Nc2cccc(Cl)c2)(C(=O)O)CC1 [Example 46, (1s,4S)-5′-chloro-4-(3-chloroanilino)-6′-methoxy-2′-[(2R)-2-methyl-3-{[(5R)-5-methyl-5,6,7,8-tetrahydroquinolin-4-yl]oxy}propyl]-2′,3′-dihydrospiro[cyclohexane-1,1′-isoindole]-4-carboxylic acid]
Ki ([1]; Ki determined from IC50): 0.255 nM | IC50 (NCI-H929 cell lines; Homo sapiens, NCI-H929, 48 h): 262 nM

CCOc1cc2c(cc1F)C[C@H](C[C@@H](C)COc1ccnc3c1[C@H](C)CCC3)[C@]21CC[C@](Nc2cccc(Cl)c2)(C(=O)O)CC1 [Example 818, (1r,2′S,4S)-4-(3-chloroanilino)-6′-ethoxy-5′-fluoro-2′-[(2R)-2-methyl-3-{[(5R)-5-methyl-5,6,7,8-tetrahydroquinolin-4-yl]oxy}propyl]-2′,3′-dihydrospiro[cyclohexane-1,1′-indene]-4-carboxylic acid]
Ki [1]: 0.0783 nM | IC50 (NCI-H929 cell lines; Homo sapiens, NCI-H929, 48 h): 106 nM

CC1Oc2cc3c(cc2O1)[C@]1(CC[C@@](Nc2cccc(Cl)c2)(C(=O)O)CC1)[C@@H](C[C@@H](C)COc1ccnc2c1[C@H](C)CCC2)C3 (single isomer, unassigned) [Example 966]
Ki [1]: 0.0267 nM | IC50 (NCI-H929 cell lines): 48.3 nM

C[C@@H](COc1ccnc2c1[C@H](C)CCC2)C[C@H]1Cc2cc3c(cc2[C@]12CC[C@@](Nc1cccc(Cl)c1F)(C(=O)O)CC2)OCO3 [Example 846, (1r,4S,6′S)-4-(3-chloro-2-fluoroanilino)-6′-[(2R)-2-methyl-3-{[(5R)-5-methyl-5,6,7,8-tetrahydroquinolin-4-yl]oxy}propyl]-6′,7′-dihydro-2′H-spiro[cyclohexane-1,5′-indeno[5,6-d][1,3]dioxole]-4-carboxylic acid]
Ki [1]: 0.105 nM | IC50 (NCI-H929 cell lines; Homo sapiens, NCI-H929, 48 h): 42 nM
